The subject of series [1] is Balb-C mice. The experiment in a line: In Vivo Screening of Luciferase Modified mRNA (bioluminescence, total flux). The settings on record: fully modified luciferase mRNA in 1×PBS, subcutaneous, 42 to 103 ug, imaged 8 hours after dosing, total flux of entire mouse. The protocol: A control of PBS was also tested. The dosages of the modified luciferase mRNA is also outlined in Table 31. 8 hours after dosing the mice were imaged to determine luciferase expression. Twenty minutes prior to imaging, mice were injected intraperitoneally with a D-luciferin solution at 150 mg/kg. Animals were then anesthetized and images were acquired with an IVIS Lumina II imaging system (Perkin Elmer). Bioluminescence was measured as total flux (photons/second) of the entire mouse.

Series [2] deals with peripheral blood mononuclear cells (PBMC). The experiment in a line: In Vitro Screening in PBMC - G-CSF protein expression. The class given is cell-based, human. Particulars: 500 ng mRNA. The source says:
(§1) The supernatant was harvested and stored frozen until analyzed by ELISA to determine the G-CSF protein expression, and the induction of the cytokines interferon-alpha (IFN-α) and tumor necrosis factor alpha (TNF-α).

In series [3] the test system is peripheral blood mononuclear cells (PBMC), TNF-alpha. The experiment in a line: In Vitro PBMC Studies: Percent modification - TNF-alpha expression. The format is cell-based, human. The protocol: (§2) The supernatant was harvested and run by ELISA 22 hours after transfection to determine the protein expression.
Series [4] deals with peripheral blood mononuclear cells (PBMC). The experiment in a line: In Vitro PBMC Studies: Percent modification - G-CSF expression. The class given is cell-based, human. Particulars: average of PBMC donors D1-D3. The method, then: 480 ng of G-CSF mRNA modified with 5-methylcytosine (5mC) and pseudouridine (pseudoU) or unmodified G-CSF mRNA was transfected with 0.4 uL of Lipofectamine 2000 into peripheral blood mononuclear cells (PBMC) from three normal blood donors (D1, D2, and D3). […] The supernatant was harvested and run by ELISA 22 hours after transfection to determine the protein expression. The expression of IFN-alpha and TNF-alpha may be a secondary effect from the transfection of the G-CSF mRNA.

Series [5] relates to peripheral blood mononuclear cells (PBMC), IFN-alpha. Description: In Vitro PBMC Studies: Percent modification - IFN-alpha expression. The class given is cell-based, human. The method, then: as §2
The target of series [6] is wild-type T7 polymerase (Escherichia phage T7, UniProt P00573). Description: In Vitro Transcription with Wild-Type T7 Polymerase (transcription and capping yield). The settings on record: OD260; for In vitro transcription Yield: wild-type T7 polymerase; for Capping reaction Yield: enzymatic capping. The method, then: The luciferase and G-CSF modified mRNA were also subjected to an enzymatic capping reaction and each modified mRNA capping reaction was evaluated for yield by spectrophometic measurement (OD260) and correct size assessed using bioanalyzer.

The subject of series [7] is peripheral blood mononuclear cells (PBMC), interferon-alpha (IFN-α). The format is cell-based, human. The settings on record: for IFN-α Expression (pg/ml) Donor 1 / IFN-α Expression (pg/ml) Donor 2 / IFN-α Expression (pg/ml) Donor 3: 500 ng fully modified G-CSF mRNA; for IFN-α Expression (pg/ml) Donor 1: Lipofectamine 2000, PBMC Donor 1, supernatant ELISA; for IFN-α Expression (pg/ml) Donor 2: Lipofectamine 2000, PBMC Donor 2, supernatant ELISA; for IFN-α Expression (pg/ml) Donor 3: Lipofectamine 2000, PBMC Donor 3, supernatant ELISA.
From the text: as §1
Background: An ELISA detects its analyte on a solid surface through an enzyme-linked reagent.

Series [8] relates to rabbit reticulysates. The experiment in a line: G-CSF expression in rabbit reticulysates (ELISA). The settings on record: 250 ng modified G-CSF mRNA in rabbit reticulysates. The class given is biochemical. The method, then:
(§3) To assess the activity of all our different chemical modifications in the context of a second open reading frame, we replicated experiments previously conducted using luciferase mRNA, with human G-CSF mRNA. […] The mutant T7 polymerase was obtained commercially (Durascribe® T7 Transcription kit (Cat. No. DS010925) (Epicentre®, Madison, Wis.).
(§4) The modified RNA in Tables 45 and 46 were transfected in vitro in HeLa cells or added to rabbit reticulysates (250 ng of modified mRNA) as indicated. […] In Table 45, “NT” means not tested.

Series [9] relates to Salmonella tester strains (TA97a, TA98, TA100 and TA1535) and Escherichia coli strain (WP2 uvrA pKM101). The experiment in a line: Microames Reverse Mutation Screen. Particulars: for Cytotoxicity (reduction in the background lawn and/or number of revertants) / increase in the number of revertant colonies as compared with the vehicle control: any strain, with or without metabolic activation; for mutagenic (microAmes screen): up to 250 ug/well, strains TA97a, TA98, TA100, TA1535 and WP2 uvrA pKM101 with or without metabolic activation. The protocol:
The microames screen is a version of the full Ames preincubation assay. It detects both frameshift and base-pair substitution mutations using four Salmonella tester strains (TA97a, TA98, TA100 and TA1535) and one Escherichia coli strain (WP2 uvrA pKM101). Strains TA97a and TA98 detect frameshift mutations, and TA100, TA1535 and WP2 uvrA pKM101 detect base-pair substitution mutations. This scaled-down Ames test uses minimal compound, is conducted with and without metabolic activation (S9 fraction), and uses multiwell plates. This teste is a microbial assay to detect the mutagenic potential of test compounds.
Positive control compounds were used at 4 different concentrations to ensure the assay system was sensitive to known mutagenic compounds. DMSO was used as the vehicle control.

Series [10] concerns peripheral blood mononuclear cells (PBMC), tumor necrosis factor alpha (TNF-α). The experiment in a line: In Vitro Screening in PBMC - tumor necrosis factor alpha (TNF-α) induction. The class given is cell-based, human. The settings on record: 500 ng fully modified G-CSF mRNA; for TNF-α Expression (pg/ml) Donor 1: Lipofectamine 2000, PBMC Donor 1, supernatant ELISA; for TNF-α Expression (pg/ml) Donor 2: Lipofectamine 2000, PBMC Donor 2, supernatant ELISA; for TNF-α Expression (pg/ml) Donor 3: Lipofectamine 2000, PBMC Donor 3, supernatant ELISA.
From the text: as §1

Series [11] relates to HeLa cells. Description: G-CSF expression in HeLa cells (ELISA). The class given is cell-based, human. The settings on record: fully modified G-CSF mRNA transfected in HeLa cells, ELISA. The method, then:
as §3, §4

Setting [12] is: PBMC Donor 1, 0.4 uL Lipofectamine 2000.
Where [13] appears, read: G-CSF modified mRNA (wild-type T7).
The mark [14] stands for this setting: Luciferase modified mRNA (wild-type T7).

Sequence of wild-type T7 polymerase (P00573 whole entry): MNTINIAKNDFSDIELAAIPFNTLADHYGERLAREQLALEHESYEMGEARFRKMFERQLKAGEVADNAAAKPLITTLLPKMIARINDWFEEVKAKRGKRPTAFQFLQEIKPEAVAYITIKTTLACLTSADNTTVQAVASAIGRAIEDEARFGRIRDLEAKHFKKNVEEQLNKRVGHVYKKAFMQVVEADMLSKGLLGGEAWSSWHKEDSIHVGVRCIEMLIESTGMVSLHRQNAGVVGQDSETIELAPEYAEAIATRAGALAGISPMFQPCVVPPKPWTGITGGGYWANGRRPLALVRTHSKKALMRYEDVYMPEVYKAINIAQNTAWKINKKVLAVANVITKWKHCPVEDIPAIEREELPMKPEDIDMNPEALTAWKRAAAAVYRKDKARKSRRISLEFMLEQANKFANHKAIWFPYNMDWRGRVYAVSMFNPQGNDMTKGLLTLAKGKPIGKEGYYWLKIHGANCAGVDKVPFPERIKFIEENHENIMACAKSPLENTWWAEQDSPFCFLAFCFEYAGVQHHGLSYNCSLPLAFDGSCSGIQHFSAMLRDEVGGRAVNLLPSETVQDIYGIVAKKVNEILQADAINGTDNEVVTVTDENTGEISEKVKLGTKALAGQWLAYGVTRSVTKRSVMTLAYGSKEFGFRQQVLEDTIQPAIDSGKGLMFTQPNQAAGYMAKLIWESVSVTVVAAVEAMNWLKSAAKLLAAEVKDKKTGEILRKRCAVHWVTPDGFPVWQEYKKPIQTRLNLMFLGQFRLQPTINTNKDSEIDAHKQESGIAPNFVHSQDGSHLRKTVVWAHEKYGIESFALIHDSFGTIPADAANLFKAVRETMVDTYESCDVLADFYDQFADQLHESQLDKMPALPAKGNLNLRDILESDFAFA

Regarding `O=c1[nH]c(=O)n([C@@H]2O[C@H](CO)[C@@H](O)[C@H]2O)cc1Br` [5-bromouridine], the “Luciferase expression (photon/second)” value in series [1] worked out at 3.75E+07 photon/second. Moreover, the figures for the “G-CSF Protein Expression” value in series [2] (setting [12]), in series [2] (PBMC Donor 2) and in [2] (PBMC Donor 3) were 314 pg/mL, 482 pg/mL and 291 pg/mL, respectively.
For `C[C@]1(CO)O[C@@H](n2ccc(N)nc2=O)[C@H](O)[C@@H]1O` [Compound 25, 4′-C-methyl cytidine], the “Average TNF-a” value in series [3] was 44 pg/mL. For the same compound, the “Average G-CSF” value in [4] is 122 pg/mL. For the same compound, the “Average IFN-a” value in [5] turned out to be 545 pg/mL.
`Cn1cc([C@@H]2O[C@H](CO)[C@@H](O)[C@H]2O)c(=O)[nH]c1=O` [Compound 1-methylpseudouridine, 1-methylpseudouridine]: in [1], the “Luciferase expression (photon/second)” value was found to be 7.40E+07 photon/second.
In the case of `CN(C)c1nc2c(ncn2[C@@H]2O[C@H](CO)[C@@H](O)[C@H]2O)c(=O)[nH]1` [Compound 50, N,N-dimethyl guanosine], in series [3], the “Average TNF-a” value stood at 28 pg/mL. In addition, the “Average G-CSF” value in series [4] came out at 189 pg/mL. Besides, the “Average IFN-a” value in series [5] was 376 pg/mL.
Regarding `Cn1cc([C@@H]2O[C@H](CO)[C@@H](O)[C@H]2O)c(=O)[nH]c1=O` [N1-methylpseudouridine], in series [2] (setting [12]), the “G-CSF Protein Expression” value is 21,495 pg/ml. Moreover, the “G-CSF Protein Expression” value in series [2] (PBMC Donor 2) is 16,550 pg/ml. Further, the “G-CSF Protein Expression” value in series [2] (PBMC Donor 3) is 12,441 pg/ml. For the same compound, in series [6] (G-CSF mRNA), the “In vitro transcription Yield” value amounted to 3.24 mg. Further, the “Capping reaction Yield” value in series [6] (setting [13]) is listed as 2.58 mg. Besides, the “In vitro transcription Yield” value in [6] (Luciferase mRNA) was determined as 1.43 mg. Besides, the “Capping reaction Yield” value in series [6] (setting [14]) was determined as 1.27 mg. Moreover, in series [7], the “cytokine induction (in words)” value is listed as “no cytokine induction”, the “IFN-α Expression (pg/ml) Donor 1” value was found to be 26 pg/mL, the “IFN-α Expression (pg/ml) Donor 2” value was 75 pg/mL and the “IFN-α Expression (pg/ml) Donor 3” value was 138 pg/mL. Besides, in series [8], the “G-CSF protein (pg/ml) Rabbit reticulysates cells” value is 230,000 pg/ml. In series [9], the “Cytotoxicity (reduction in the background lawn and/or number of revertants)” value was “not observed”, the “increase in the number of revertant colonies as compared with the vehicle control” value is on record as “no increase” and the “mutagenic (microAmes screen)” value was “not mutagenic”. Moreover, in series [10], the “TNF-α Expression (pg/ml) Donor 1” value was determined as 101 pg/mL, the “TNF-α Expression (pg/ml) Donor 2” value turned out to be 106 pg/mL and the “TNF-α Expression (pg/ml) Donor 3” value was determined as 134 pg/mL.
Take `CC(=O)Nc1ccn([C@@H]2O[C@H](CO)[C@@H](O)[C@H]2O)c(=O)n1` [N4-acetylcytidine]: the “Luciferase expression (photon/second)” value in series [1] is on record as 1.11E07 photon/second. In series [11], the “G-CSF protein (pg/ml) HeLa cells” value was 39,545 pg/ml. Also, the results for the “G-CSF Protein Expression” value in [2] (setting [12]), in series [2] (PBMC Donor 2) and in series [2] (PBMC Donor 3) were 50 pg/mL, 136 pg/mL and 36 pg/mL, respectively. Moreover, in series [8], the “G-CSF protein (pg/ml) Rabbit reticulysates cells” value is 8,000 pg/ml.
`Cc1cn([C@@H]2O[C@H](CO)[C@@H](O)[C@H]2O)c(=O)[nH]c1=O` [5-methyluridine]: the “Luciferase expression (photon/second)” value in series [1] was 7.42E+06 photon/second. For the same compound, the “G-CSF protein (pg/ml) HeLa cells” value in [11] is given as 347,045 pg/ml. Moreover, the “G-CSF Protein Expression” value amounted to 318 pg/mL in series [2] (setting [12]), 359 pg/mL in [2] (PBMC Donor 2) and 345 pg/mL in [2] (PBMC Donor 3). Further, in series [8], the “G-CSF protein (pg/ml) Rabbit reticulysates cells” value was 147,250 pg/ml.
For the compound `O=c1[nH]cc([C@@H]2O[C@H](CO)[C@@H](O)[C@H]2O)c(=O)[nH]1` [pseudouridine, Pseudouridine], the “Luciferase expression (photon/second)” value in [1] was 1.36E+07 photon/second. Further, the “G-CSF protein (pg/ml) HeLa cells” value in series [11] is recorded as 1,150,909 pg/ml. Further, the entries for the “G-CSF Protein Expression” value in series [2] (setting [12]), in series [2] (PBMC Donor 2) and in series [2] (PBMC Donor 3) were 2477 pg/mL, 1,909 pg/ml and 1,498 pg/ml, respectively. In addition, the “G-CSF protein (pg/ml) Rabbit reticulysates cells” value in series [8] was 147,875 pg/ml.
Consider `Cc1cn([C@@H]2O[C@H](CO)[C@@H](O)[C@H]2O)c(=O)nc1N` [5-Methylcytidine, reference compound], for which, in series [1], the “Luciferase expression (photon/second)” value worked out at 1.94E+07 photon/second. For the same compound, the “G-CSF Protein Expression” value in series [2] (setting [12]) turned out to be 291 pg/mL. Moreover, the “G-CSF Protein Expression” value in series [2] (PBMC Donor 2) was found to be 277 pg/mL. Also, the “G-CSF Protein Expression” value in series [2] (PBMC Donor 3) was found to be 359 pg/mL. Moreover, the “In vitro transcription Yield” value in [6] (G-CSF mRNA) worked out at 2.05 mg. Further, the “Capping reaction Yield” value in series [6] (setting [13]) is listed as 1.08 mg. In addition, the “In vitro transcription Yield” value in series [6] (Luciferase mRNA) turned out to be 1.29 mg. In addition, the “Capping reaction Yield” value in series [6] (setting [14]) is listed as 1.02 mg. Besides, in series [7], the “IFN-α Expression (pg/ml) Donor 1” value was determined as 643 pg/mL, the “IFN-α Expression (pg/ml) Donor 2” value amounted to 359 pg/mL and the “IFN-α Expression (pg/ml) Donor 3” value worked out at 529 pg/mL. In [9], the “Cytotoxicity (reduction in the background lawn and/or number of revertants)” value is given as “not observed”, the “increase in the number of revertant colonies as compared with the vehicle control” value is on record as “no increase” and the “mutagenic (microAmes screen)” value is given as “not mutagenic”. In [10], the “TNF-α Expression (pg/ml) Donor 1” value came out at 176 pg/mL, the “TNF-α Expression (pg/ml) Donor 2” value was found to be 136 pg/mL and the “TNF-α Expression (pg/ml) Donor 3” value worked out at 193 pg/mL.

Source of the values: patent publication US20130123481A1, “MODIFIED NUCLEOSIDES, NUCLEOTIDES, AND NUCLEIC ACIDS, AND USES THEREOF” (MODERNA THERAPEUTICS, priority 2011, published 2013).
